Assay results from BigSolDB 2.1.

Structure (SMILES): O=C(O)c1cccnc1Cl
- solubility (mole fraction) (in 1,4-dioxane, 288.15 K): 0.0088
- solubility (mole fraction) (in 1,4-dioxane, 293.15 K): 0.0103
- solubility (mole fraction) (in 1,4-dioxane, 298.15 K): 0.012
- solubility (mole fraction) (in 1,4-dioxane, 303.15 K): 0.0136
- solubility (mole fraction) (in 1,4-dioxane, 308.15 K): 0.0155
- solubility (mole fraction) (in 1,4-dioxane, 313.15 K): 0.0176
- solubility (mole fraction) (in DMF, 273.15 K): 0.124
- solubility (mole fraction) (in DMF, 278.15 K): 0.149
- solubility (mole fraction) (in DMF, 283.15 K): 0.175
- solubility (mole fraction) (in DMF, 288.15 K): 0.2
- solubility (mole fraction) (in DMF, 293.15 K): 0.228
- solubility (mole fraction) (in DMF, 298.15 K): 0.26
- solubility (mole fraction) (in DMF, 303.15 K): 0.291
- solubility (mole fraction) (in DMF, 308.15 K): 0.327
- solubility (mole fraction) (in DMF, 313.15 K): 0.367
- solubility (mole fraction) (in NMP, 273.15 K): 0.206
- solubility (mole fraction) (in NMP, 278.15 K): 0.235
- solubility (mole fraction) (in NMP, 283.15 K): 0.265
- solubility (mole fraction) (in NMP, 288.15 K): 0.295
- solubility (mole fraction) (in NMP, 293.15 K): 0.328
- solubility (mole fraction) (in NMP, 298.15 K): 0.36
- solubility (mole fraction) (in NMP, 303.15 K): 0.397
- solubility (mole fraction) (in NMP, 308.15 K): 0.437
- solubility (mole fraction) (in NMP, 313.15 K): 0.478
- solubility (mole fraction) (in acetone, 273.15 K): 0.00893
- solubility (mole fraction) (in acetone, 278.15 K): 0.0103
- solubility (mole fraction) (in acetone, 283.15 K): 0.0118
- solubility (mole fraction) (in acetone, 288.15 K): 0.0133
- solubility (mole fraction) (in acetone, 293.15 K): 0.0149
- solubility (mole fraction) (in acetone, 298.15 K): 0.0166
- solubility (mole fraction) (in acetone, 303.15 K): 0.0184
- solubility (mole fraction) (in acetone, 308.15 K): 0.0205
- solubility (mole fraction) (in acetone, 313.15 K): 0.0226
- solubility (mole fraction) (in acetonitrile, 273.15 K): 0.00105
- solubility (mole fraction) (in acetonitrile, 278.15 K): 0.00137
- solubility (mole fraction) (in acetonitrile, 283.15 K): 0.00174
- solubility (mole fraction) (in acetonitrile, 288.15 K): 0.00214
- solubility (mole fraction) (in acetonitrile, 293.15 K): 0.00263
- solubility (mole fraction) (in acetonitrile, 298.15 K): 0.00324
- solubility (mole fraction) (in acetonitrile, 303.15 K): 0.00399
- solubility (mole fraction) (in ethanol, 273.15 K): 0.00286
- solubility (mole fraction) (in ethanol, 278.15 K): 0.00363
- solubility (mole fraction) (in ethanol, 283.15 K): 0.00461
- solubility (mole fraction) (in ethanol, 288.15 K): 0.00563
- solubility (mole fraction) (in ethanol, 293.15 K): 0.00676
- solubility (mole fraction) (in ethanol, 298.15 K): 0.00804
- solubility (mole fraction) (in ethanol, 303.15 K): 0.00953
- solubility (mole fraction) (in ethanol, 308.15 K): 0.0112
- solubility (mole fraction) (in ethanol, 313.15 K): 0.0129
- solubility (mole fraction) (in ethyl acetate, 273.15 K): 0.0138
- solubility (mole fraction) (in ethyl acetate, 278.15 K): 0.0163
- solubility (mole fraction) (in ethyl acetate, 283.15 K): 0.0189
- solubility (mole fraction) (in ethyl acetate, 288.15 K): 0.0218
- solubility (mole fraction) (in ethyl acetate, 293.15 K): 0.0246
- solubility (mole fraction) (in ethyl acetate, 298.15 K): 0.0276
- solubility (mole fraction) (in ethyl acetate, 303.15 K): 0.0308
- solubility (mole fraction) (in ethyl acetate, 308.15 K): 0.0344
- solubility (mole fraction) (in ethyl acetate, 313.15 K): 0.0382
- solubility (mole fraction) (in isopropanol, 273.15 K): 0.00368
- solubility (mole fraction) (in isopropanol, 278.15 K): 0.00464
- solubility (mole fraction) (in isopropanol, 283.15 K): 0.00574
- solubility (mole fraction) (in isopropanol, 288.15 K): 0.00697
- solubility (mole fraction) (in isopropanol, 293.15 K): 0.0083
- solubility (mole fraction) (in isopropanol, 298.15 K): 0.00972
- solubility (mole fraction) (in isopropanol, 303.15 K): 0.0113
- solubility (mole fraction) (in isopropanol, 308.15 K): 0.013
- solubility (mole fraction) (in isopropanol, 313.15 K): 0.0147
- solubility (mole fraction) (in methanol, 273.15 K): 0.00227
- solubility (mole fraction) (in methanol, 278.15 K): 0.00283
- solubility (mole fraction) (in methanol, 283.15 K): 0.00347
- solubility (mole fraction) (in methanol, 288.15 K): 0.00422
- solubility (mole fraction) (in methanol, 293.15 K): 0.00505
- solubility (mole fraction) (in methanol, 298.15 K): 0.00598
- solubility (mole fraction) (in methanol, 303.15 K): 0.00696
- solubility (mole fraction) (in methanol, 308.15 K): 0.00806
- solubility (mole fraction) (in methanol, 313.15 K): 0.00927
- solubility (mole fraction) (in n-propanol, 273.15 K): 0.00446
- solubility (mole fraction) (in n-propanol, 278.15 K): 0.00546
- solubility (mole fraction) (in n-propanol, 283.15 K): 0.00667
- solubility (mole fraction) (in n-propanol, 288.15 K): 0.00792
- solubility (mole fraction) (in n-propanol, 293.15 K): 0.00933
- solubility (mole fraction) (in n-propanol, 298.15 K): 0.011
- solubility (mole fraction) (in n-propanol, 303.15 K): 0.0125
- solubility (mole fraction) (in n-propanol, 308.15 K): 0.0144
- solubility (mole fraction) (in n-propanol, 313.15 K): 0.0162
- solubility (mole fraction) (in water, 273.15 K): 9.1e-05
- solubility (mole fraction) (in water, 278.15 K): 0.000104
- solubility (mole fraction) (in water, 283.15 K): 0.00012
- solubility (mole fraction) (in water, 288.15 K): 0.000136
- solubility (mole fraction) (in water, 293.15 K): 0.000153
- solubility (mole fraction) (in water, 298.15 K): 0.000171
- solubility (mole fraction) (in water, 303.15 K): 0.000191
- solubility (mole fraction) (in water, 308.15 K): 0.000216
- solubility (mole fraction) (in water, 313.15 K): 0.000242
